Broadly, the MBC is the lowest tested concentration that kills the bacteria rather than only halting them. The MIC is the lowest concentration found to suppress growth. The low end stands for inhibition by little substance, the high end for a need for much substance. The term IC50 denotes the concentration that inhibits the measured activity by half.

Values after ≈ are worked out from the molar mass of the structure shown.

The record followed here is ChEMBL document CHEMBL1155244, “Identification of a bioactive compound isolated from Brazilian propolis type 6” (Bioorg Med Chem, 2009).

One experiment relates to Streptococcus oralis. Kind of experiment: Antibacterial activity against Streptococcus oralis PB182 after 24 hrs by agar diffusion method. In kind it is functional. Particulars: PB182, 24 h. Background: Agar diffusion results depend on both activity and mobility in agar.
The subject of a further experiment is Actinomyces naeslundii. Put plainly: Antimicrobial activity against Actinomyces naeslundii 12104 after 24 hrs by agar diffusion method. In kind it is functional. Particulars: Actinomyces naeslundii, 12104, 24 h.
For a further experiment, the system named is Staphylococcus aureus. Kind of experiment: Antibacterial activity against Staphylococcus aureus 25923 after 24 hrs by agar diffusion method. To be noted: Staphylococcus aureus, 25923, 24 h. In kind it is functional.
The subject of experiment [1] is Streptococcus mutans. Kind of experiment: Antibacterial activity against Streptococcus mutans UA159 assessed as total biofilm adherence inhibition after 18 hrs by microtechnique. Format: functional.
Experiment [2] relates to Streptococcus mutans. Kind of experiment: Antibacterial activity against Streptococcus mutans UA159 after 24 hrs by agar diffusion method. Particulars: UA159, 24 h. Format: functional.
Experiment [3] deals with Streptococcus sobrinus. Put plainly: Antibacterial activity against Streptococcus sobrinus 6715 after 24 hrs by agar diffusion method. Particulars: Streptococcus sobrinus, 6715, 24 h. Format: functional.
Experiment [4] deals with Streptococcus sobrinus. Put plainly: Antibacterial activity against Streptococcus sobrinus 6715 assessed as total biofilm adherence inhibition after 18 hrs by microtechnique. In kind it is functional.
The next experiment concerns HeLa. Kind of experiment: Cytotoxicity against human HeLa cells after 24 to 48 hrs by MTT assay. In kind it is functional, cell-based. (Formazan colour is commonly taken as a measure of viable cells.)
A further experiment has as its system Streptococcus gordonii. Kind of experiment: Antibacterial activity against Streptococcus gordonii 10558 after 24 hrs by agar diffusion method. Format: functional. To be noted: Streptococcus gordonii, 10558, 24 h.

For the molecule `CC(C)=CC[C@H]1C[C@@]2(CC=C(C)C)C(=O)[C@](C(=O)c3ccccc3)(C(=O)C3=C2O[C@H](C(C)(C)O)C3)C1(C)C` [HYPERIBONE A], the MBC against Streptococcus oralis was 26 µg/mL (≈ 50.1 µM); against Actinomyces naeslundii, 6.6 µg/mL (≈ 12.7 µM); in the experiment on Staphylococcus aureus, 5.85 µg/mL (≈ 11.3 µM); against Streptococcus mutans [2] it was 53 µg/mL (≈ 102 µM); with Streptococcus sobrinus [3] it was 53 µg/mL (≈ 102 µM); against Streptococcus gordonii, 26 µg/mL (≈ 50.1 µM). For the same molecule, the MIC with Streptococcus oralis was 1.65 µg/mL (≈ 3.18 µM); against Actinomyces naeslundii it was 1.65 µg/mL (≈ 3.18 µM); with Staphylococcus aureus, 0.73 µg/mL (≈ 1.41 µM); against Streptococcus mutans [2], 3.3 µg/mL (≈ 6.36 µM); in the experiment on Streptococcus sobrinus [3], 3.3 µg/mL (≈ 6.36 µM); with Streptococcus gordonii, 1.65 µg/mL (≈ 3.18 µM). Further, the Activity with Streptococcus mutans [1] and in the experiment on Streptococcus sobrinus [4] was 1.65 µg/mL in each case. For the same molecule, in the experiment with HeLa, the IC50 came to 176 nM.

For `CC(C)=CCC1=C(O)[C@@]2(C(=O)c3ccccc3)C(=O)[C@](CC=C(C)C)(C[C@H](CC=C(C)C)C2(C)C)C1=O`, the IC50 in the experiment on HeLa worked out at 3300 nM.
